According to article PMC8948292, “Combining PEGylated mito-atovaquone with MCT and Krebs cycle redox inhibitors as a potential strategy to abrogate tumor cell proliferation” (Scientific Reports, 2022):

Assays:
MiaPaCa-2 cells [1] = assay: Intracellular oxidants: HPLC of hydroethidine (HE) oxidation products; type: cell-based, human
Protocol: Hydroethidine (HE) or dihydroethidium was used as a fluorogenic probe to assess the cellular generation of superoxide and other peroxidatic oxidants[36],[37]. Cells were treated for 24 h with Mito-PEG5-ATO alone or in combination with AZD-3965 or CPI-613, followed by 1 h incubation with HE (10 µM). Cells were harvested and the cell pellet stored at − 80 °C until the day of high-performance liquid chromatography (HPLC) analysis. Sample preparation and HPLC analysis were performed as previously reported[32],[36]. 2-OH-E^+ was used as a specific marker for superoxide, and E^+-E^+ was used as a specific marker for intracellular one-electron oxidants[36],[37].
HE was purchased from Invitrogen (Carlsbad, CA). Stock solutions (20 mM and 5 mM, respectively) were prepared in deoxygenated DMSO (dimethyl sulfoxide) and stored at − 80 °C until use. Ethidium cation (bromide salt) was purchased from Sigma-Aldrich. The hydroxylated oxidation products from HE (2-OH-E^+) were prepared by reacting the probes with Fremy’s salt as previously described in detail[70],[71]. The dimeric products were prepared by reacting the probes with excess potassium ferricyanide, as detailed elsewhere. Synthesized standards of all oxidation products of HE were purified by HPLC. HPLC-based measurements of HE and its oxidation products were performed using an Agilent 1100 system equipped with absorption and fluorescence detectors and refrigerated autosampler (4 °C). The samples (50 µL) were injected into a reverse phase column (Phenomenex, Kinetex C18, 100 mm × 4.6 mm, 2.6 µm) equilibrated with 20% acetonitrile and 80% water containing 0.1% trifluoroacetic acid. The compounds were eluted by increasing the content of acetonitrile from 20 to 56% over 4.5 min at a flow rate of 1.5 mL/min. The absorption detector was used to measure 3,8-diamino-6-phenylphenanthridine (at 290 nm; retention time: 2.5 min), HE-E^+ (at 290 nm; retention time: 4.1 min), E^+-E^+ (at 290 nm; retention time: 4.3 min), and HE (at 370 nm; retention time: 1.6 min). A fluorescence detector (initial excitation at 358 nm and emission at 440 nm) was used to monitor HE (when present at low concentrations). At 2.3 min after injection, the fluorescence parameters were changed (excitation at 490 nm and emission at 567 nm) for sensitive detection of 2-OH-E^+ (retention time: 3.2 min) and E^+ (retention time: 3.3 min).

MiaPaCa-2 cells [2] = assay: Intracellular ATP, luciferase-based assay; type: cell-based, human
Protocol: After seeding cells overnight at 2 × 10^4 per well in 96-well plates, cells were treated for 24 h. Intracellular ATP levels were determined in cell lysates using a luciferase-based assay per the manufacturer’s instructions (cat# FLAA, Sigma Aldrich, St. Louis, MO). In brief, the assay starts by rapidly adding an ATP assay mix solution (luciferase and luciferin solution, cat# FLAAM) to cell lysates. This is swirled briskly to mix, and the amount of light produced is immediately measured with a luminometer. The results were normalized to the total protein level measured in each well, as determined by the Bradford method (Bio-Rad Laboratories, Hercules, CA).

[3] = target: mitochondrial complex III (MiaPaCa-2 cells) (Homo sapiens, UniProt P00156); assay: Complex III-dependent oxygen consumption in permeabilized cells, Seahorse XF-96; type: cell-based
Outline: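 MiaPaCa-2 cells were treated 24 h with Mito-PEG-ATO analogs, and OCR was read on a Seahorse XF-96; basal respiration was taken in intact cells. For complex I, permeabilized cells received 10 mM pyruvate, 1.5 mM malate and 10 mM malonate; for complex III, 0.5 mM duroquinol, 1 µM rotenone and 10 mM malonate, both in mannitol/sucrose buffer. IC50 values were derived from the OCR data.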

Sequence of mitochondrial complex III (MiaPaCa-2 cells) (P00156 whole entry): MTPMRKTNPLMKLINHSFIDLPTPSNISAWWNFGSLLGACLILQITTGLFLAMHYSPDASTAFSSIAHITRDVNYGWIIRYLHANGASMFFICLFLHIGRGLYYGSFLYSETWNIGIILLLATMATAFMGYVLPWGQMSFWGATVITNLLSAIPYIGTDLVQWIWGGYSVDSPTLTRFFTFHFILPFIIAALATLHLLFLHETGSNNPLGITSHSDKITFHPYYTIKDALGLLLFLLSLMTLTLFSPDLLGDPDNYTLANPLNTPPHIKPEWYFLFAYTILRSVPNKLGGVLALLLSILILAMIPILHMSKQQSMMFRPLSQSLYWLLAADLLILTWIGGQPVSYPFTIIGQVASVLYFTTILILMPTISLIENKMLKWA
Sequence of mitochondrial complex III (MiaPaCa-2 cells) (P47985 whole entry partner): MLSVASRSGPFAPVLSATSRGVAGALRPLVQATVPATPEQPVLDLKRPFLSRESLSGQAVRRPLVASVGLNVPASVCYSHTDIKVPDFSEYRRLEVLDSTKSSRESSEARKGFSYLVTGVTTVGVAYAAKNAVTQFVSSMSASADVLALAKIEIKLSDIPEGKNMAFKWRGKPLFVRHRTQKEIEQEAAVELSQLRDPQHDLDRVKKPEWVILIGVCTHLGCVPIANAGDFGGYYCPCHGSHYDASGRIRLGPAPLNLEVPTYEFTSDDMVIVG

In the case of `Cc1[nH]nc(C(F)(F)F)c1Cc1sc2c(c1C(=O)N1C[C@](C)(O)CO1)c(=O)n(C)c(=O)n2C(C)C` [AZD-3965], the “Intracellular oxidant-induced HE-derived products, in combination with Mito-PEG5-ATO” value (MiaPaCa-2 cells [1]; 24 h, with Mito-PEG5-ATO 0.05 µM, AZD-3965 200 µM or CPI-613 200 µM) is reported as “modest and additive increase”, the “intracellular ATP level” value (MiaPaCa-2 cells [2]; AZD-3965 10 µM, Mito-PEG5-ATO 0 µM, 24 h treatment, mean n=4) is reported as 28.98 nmol ATP/mg protein and the “intracellular ATP level” value (MiaPaCa-2 cells [2]; AZD-3965 20 µM, Mito-PEG5-ATO 0 µM, 24 h treatment, mean n=4) is reported as 29.42 nmol ATP/mg protein. For the same compound, the “intracellular ATP level” value (MiaPaCa-2 cells [2]; AZD-3965 30 µM, Mito-PEG5-ATO 0 µM, 24 h treatment, mean n=4) was 28.90 nmol ATP/mg protein, the “intracellular ATP level” value (MiaPaCa-2 cells [2]; AZD-3965 40 µM, Mito-PEG5-ATO 0 µM, 24 h treatment, mean n=4) was 30.34 nmol ATP/mg protein and the “intracellular ATP level” value (MiaPaCa-2 cells [2]; AZD-3965 60 µM, Mito-PEG5-ATO 0 µM, 24 h treatment, mean n=4) was 30.77 nmol ATP/mg protein. For the same compound, the “intracellular ATP level” value (MiaPaCa-2 cells [2]; AZD-3965 80 µM, Mito-PEG5-ATO 0 µM, 24 h treatment, mean n=4) was 30.40 nmol ATP/mg protein, the “intracellular ATP level” value (MiaPaCa-2 cells [2]; AZD-3965 100 µM, Mito-PEG5-ATO 0 µM, 24 h treatment, mean n=4) was 31.41 nmol ATP/mg protein and the “intracellular ATP level” value (MiaPaCa-2 cells [2]; AZD-3965 150 µM, Mito-PEG5-ATO 0 µM, 24 h treatment, mean n=4) was 32.36 nmol ATP/mg protein. For the same compound, the “intracellular ATP level” value (MiaPaCa-2 cells [2]; AZD-3965 200 µM, Mito-PEG5-ATO 0 µM, 24 h treatment, mean n=4) was 30.51 nmol ATP/mg protein, the “intracellular ATP level” value (MiaPaCa-2 cells [2]; AZD-3965 400 µM, Mito-PEG5-ATO 0 µM, 24 h treatment, mean n=4) was 31.60 nmol ATP/mg protein and the “intracellular ATP level” value (MiaPaCa-2 cells [2]; AZD-3965 600 µM, Mito-PEG5-ATO 0 µM, 24 h treatment, mean n=4) was 31.63 nmol ATP/mg protein. The “Effect on the decrease in complex III-induced oxygen consumption induced by Mito-PEG5-ATO” value ([3]; MiaPaCa-2 cells, with Mito-PEG5-ATO) was “Neither AZD-3965 nor V-9302 significantly affected”.

`O=C1C(OCCOCCOCCOCCOCC[P+](c2ccccc2)(c2ccccc2)c2ccccc2)=C([C@H]2CC[C@H](c3ccc(Cl)cc3)CC2)C(=O)c2ccccc21.[Br-]` [Mito-PEG5-ATO, [14-((3-(trans-4-(4-chlorophenyl)cyclohexyl)-1,4-dioxo-1,4-dihydronaphthalen-2-yl)oxy)-3,6,9,12-tetraoxatetradecyl]triphenylphosphonium bromide] was tested, and the “HE oxidation products 2-OH-E+, E+ and E+-E+” value (MiaPaCa-2 cells [1]; 24 h treatment, then HE 10 µM 1 h) was “slight but significant increase”, the “Intracellular ATP levels” value (MiaPaCa-2 cells [2]; MiaPaCa-2 cells, 24 h, alone and with AZD-3965 or syrosingopine) was “not due to intracellular ATP depletion” and the “intracellular ATP level” value (MiaPaCa-2 cells [2]; Mito-PEG5-ATO 0.02 µM, AZD-3965 0 µM, 24 h) was 34.79 nmol ATP/mg protein. The “intracellular ATP level” value (MiaPaCa-2 cells [2]; Mito-PEG5-ATO 0.02 µM, syrosingopine 0 µM, 24 h) was 33.08 nmol ATP/mg protein, the “intracellular ATP level” value (MiaPaCa-2 cells [2]; Mito-PEG5-ATO 0.04 µM, AZD-3965 0 µM, 24 h) was 29.69 nmol ATP/mg protein and the “intracellular ATP level” value (MiaPaCa-2 cells [2]; Mito-PEG5-ATO 0.04 µM, syrosingopine 0 µM, 24 h) was 29.16 nmol ATP/mg protein. For the same compound, the “intracellular ATP level” value (MiaPaCa-2 cells [2]; Mito-PEG5-ATO 0.06 µM, AZD-3965 0 µM, 24 h) was 29.11 nmol ATP/mg protein, the “intracellular ATP level” value (MiaPaCa-2 cells [2]; Mito-PEG5-ATO 0.06 µM, syrosingopine 0 µM, 24 h) was 28.90 nmol ATP/mg protein and the “intracellular ATP level” value (MiaPaCa-2 cells [2]; Mito-PEG5-ATO 0.08 µM, AZD-3965 0 µM, 24 h) was 28.15 nmol ATP/mg protein. For the same compound, the “intracellular ATP level” value (MiaPaCa-2 cells [2]; Mito-PEG5-ATO 0.08 µM, syrosingopine 0 µM, 24 h) was 27.83 nmol ATP/mg protein, the “intracellular ATP level” value (MiaPaCa-2 cells [2]; Mito-PEG5-ATO 0.1 µM, AZD-3965 0 µM, 24 h) was 27.57 nmol ATP/mg protein and the “intracellular ATP level” value (MiaPaCa-2 cells [2]; Mito-PEG5-ATO 0.1 µM, syrosingopine 0 µM, 24 h) was 27.64 nmol ATP/mg protein. The “intracellular ATP level” value (MiaPaCa-2 cells [2]; Mito-PEG5-ATO 0.15 µM, AZD-3965 0 µM, 24 h) was 28.14 nmol ATP/mg protein, the “intracellular ATP level” value (MiaPaCa-2 cells [2]; Mito-PEG5-ATO 0.15 µM, syrosingopine 0 µM, 24 h) was 28.11 nmol ATP/mg protein and the “intracellular ATP level” value (MiaPaCa-2 cells [2]; Mito-PEG5-ATO 0.5 µM, AZD-3965 0 µM, 24 h) was 26.75 nmol ATP/mg protein. For the same compound, the “intracellular ATP level” value (MiaPaCa-2 cells [2]; Mito-PEG5-ATO 0.5 µM, syrosingopine 0 µM, 24 h) was 26.12 nmol ATP/mg protein, the “Complex III activity (OCR, % of control)” value ([3]; 0.003 µM) was 94.9 % of control and the “Complex III activity (OCR, % of control)” value ([3]; 0.01 µM) was 94.3 % of control. The “Complex III activity (OCR, % of control)” value ([3]; 0.03 µM) was 84.2 % of control, the “Complex III activity (OCR, % of control)” value ([3]; 0.05 µM) was 89.9 % of control and the “Complex III activity (OCR, % of control)” value ([3]; 0.075 µM) was 89.1 % of control. For the same compound, the “Complex III activity (OCR, % of control)” value ([3]; 0.1 µM) was 87.5 % of control, the “Complex III activity (OCR, % of control)” value ([3]; 0.3 µM) was 61.6 % of control and the “Complex III activity (OCR, % of control)” value ([3]; 0.5 µM) was 38.4 % of control. The “Complex III activity (OCR, % of control)” value ([3]; 1 µM) was 17.8 % of control, the “Complex III activity (OCR, % of control)” value ([3]; 3 µM) was 8.0 % of control and the IC50 ([3]; MiaPaCa-2 cells, 24 h treatment, antimycin A-inhibitable OCR, read-out: IC50, complex III-induced oxygen consumption (Complex III activity)) was 0.39 µM.
